Source: patent publication US10117864B2, “Substituted N-bicyclo-2-aryl-quinolin-4-carboxamides and use thereof” (BAYER PHARMA AKTIENGESELLSCHAFT, priority 2015, dated 2018)

Tests used:
human FP receptor = human FP receptor (Homo sapiens (Human), UniProt P43088); assay: In vitro test of inhibition of human FP receptor activity (PGF2α-induced calcium flux in FP-expressing CHEM1 cells); format: cell-based; conditions: PGF2α-induced (3 nM) calcium flux, some as mean values from multiple independent determinations
Chain of human FP receptor (P43088 whole entry): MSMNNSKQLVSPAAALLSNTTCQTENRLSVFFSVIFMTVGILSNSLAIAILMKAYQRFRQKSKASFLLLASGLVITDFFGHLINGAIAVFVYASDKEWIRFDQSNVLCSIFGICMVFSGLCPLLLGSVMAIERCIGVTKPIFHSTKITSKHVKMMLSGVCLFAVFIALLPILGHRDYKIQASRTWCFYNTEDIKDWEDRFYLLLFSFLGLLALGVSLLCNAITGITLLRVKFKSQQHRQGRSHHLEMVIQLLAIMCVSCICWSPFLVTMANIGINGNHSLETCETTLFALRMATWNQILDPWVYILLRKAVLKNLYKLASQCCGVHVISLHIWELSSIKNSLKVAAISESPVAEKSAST
Text: • CRTH2 chemoattractant receptor-homologous molecule expressed on T helper type 2 cells • DMEM Dulbecco's modified Eagle's medium • DMSO dimethyl sulfoxide • DP PGD2 receptor • EC50 half-maximum effective concentration • Em emission • EP PGE2 receptor • Ex excitation • from Company (source) • FCS fetal calf serum • FP PGF2α receptor • HEPES 2-[4-(2-hydroxyethyl)piperazin-1-yl]ethanesulfonic acid • IC50 half-maximum inhibitory concentration • IP PGI2 receptor • MES 2-(N-morpholino)ethanesulfonic acid • Pen/Strep penicillin/streptomycin • PGD2 prostaglandin D2 • PGE2 prostaglandin E2 • PGF2α prostaglandin F2α • PGI2 prostaglandin I2 • TC tissue culture • TP thromboxane A2 receptor • Tris tris(hydroxymethyl)aminomethane • v/v volume to volume ratio (of a solution) • w/w weight to weight ratio (of a solution) B-1. In Vitro Test of Inhibition of Human FP Receptor Activity
For the characterization of test substances in respect of FP antagonism, PGF2α-induced calcium flux in FP-expressing CHEM1 cells (Millipore, HTS093C) was used.
Prior to the measurement, the medium is replaced by 30 μl of Fluo-8 AM loading buffer [calcium-free Tyrode (130 mM NaCl, 5 mM KCl, 20 mM HEPES, 1 mM MgCl2, 4.8 mM NaHCO3, pH 7.4), 2 mM CaCl2, 1× SmartBlock (from CANDOR Bioscience GmbH), 4.5 mM Probenecid, 5 μM Fluo-8 AM, 0.016% Pluronic®, 0.04% Brilliant black] and incubated at 37° C./5% CO2 for 30 minutes. […] 10 μl of the prediluted substance solution are added to the Fluo-8-laden cells and incubated at 37° C./5% CO2 for 10 minutes. The FP receptor is activated by adding 20 μl of 3 nM (final concentration) PGF2α in calcium-free Tyrode/2 mM CaCl2/0.04% Brilliant black, and the calcium flux is determined by measuring the fluorescence at ex. 470 nm/[…].
Table 1 below lists the IC50 values from this assay for individual working examples of the invention (some as mean values from multiple independent individual determinations): […]

[1] = eliminated renally; cited from earlier work
[2] = unstable molecule, rearranged enzymatically in lung, liver and kidney to 15-ketodihydro-PGF2α; cited from earlier work

IC50 (human FP receptor) [nM]	Compound	further results
22	O=C(NC12CCC(C(=O)O)(CC1)CC2)c1c(Cl)c(-c2ccccc2)nc2ccc(I)cc12 [Example 32, 4-{[(3-Chloro-6-iodo-2-phenylquinolin-4-yl)carbonyl]amino}bicyclo[2.2.2]octane-1-carboxylic acid]	–
51	O=C(NC12CCC(C(=O)O)(CC1)CC2)c1c(C2CC2)c(-c2ccccc2)nc2ccc(I)cc12 [Example 33, 4-{[(3-Cyclopropyl-6-iodo-2-phenylquinolin-4-yl)carbonyl]amino}bicyclo[2.2.2]octane-1-carboxylic acid]	–
505	Cc1c(-c2ccccc2)nc2ccc(C(F)(F)F)cc2c1C(=O)NC12CCC(C(=O)O)(CC1)CC2 [Example 34, 4-({[3-Methyl-2-phenyl-6-(trifluoromethyl)quinolin-4-yl]carbonyl}amino)bicyclo[2.2.2]octane-1-carboxylic acid]	–
430	O=C(NC12CCC(C(=O)O)(CC1)CC2)c1c(O)c(-c2ccccc2)nc2ccc(Br)cc12 [Example 35, 4-{[(6-Bromo-3-hydroxy-2-phenylquinolin-4-yl)carbonyl]amino}bicyclo[2.2.2]octane-1-carboxylic acid]	–
553	Cc1c(-c2ccccc2)nc2ccc(Br)cc2c1C(=O)NC12CCC(C(N)=O)(CC1)CC2 [Example 36, 6-Bromo-N-(4-carbamoylbicyclo[2.2.2]oct-1-yl)-3-methyl-2-phenylquinoline-4-carboxamide]	–
723	Cc1c(-c2ccccc2)nc2ccc(Br)cc2c1C(=O)NC12CC(C(=O)O)(C1)C2 [Example 37, 3-{[(6-Bromo-3-methyl-2-phenylquinolin-4-yl)carbonyl]amino}bicyclo[1.1.1]pentane-1-carboxylic acid]	–
1280	Cc1c(-c2ccccc2)nc2ccc(I)cc2c1C(=O)NC12CCC(C(=O)O)(CC1)C2 [Example 38, 4-{[(6-Iodo-3-methyl-2-phenylquinolin-4-yl)carbonyl]amino}bicyclo [2.2.1]heptane-1-carboxylic acid]	–
230	Cc1c(-c2ccccc2)nc2ccc(Br)cc2c1C(=O)NC12CCCC(C(=O)O)(CC1)CC2 [Example 39, 5-{[(6-Bromo-3-methyl-2-phenylquinolin-4-yl)carbonyl]amino}bicyclo[3.2.2]nonane-1-carboxylic acid]	–
195	O=C(NC12CCCC(C(=O)O)(CC1)CC2)c1c(Cl)c(-c2ccccc2)nc2ccc(Br)cc12 [Example 40, 5-{[(6-Bromo-3-chloro-2-phenylquinolin-4-yl)carbonyl]amino}bicyclo[3.2.2]nonane-1-carboxylic acid]	–
48	O=C(NC12CCCC(C(=O)O)(CC1)CC2)c1c(Cl)c(-c2ccccc2)nc2ccc(I)cc12 [Example 41, 5-{[(3-Chloro-6-iodo-2-phenylquinolin-4-yl)carbonyl]amino}bicyclo[3.2.2]nonane-1-carboxylic acid]	–
33	O=C(NC12CCCC(C(=O)O)(CC1)CC2)c1c(C2CC2)c(-c2ccccc2)nc2ccc(I)cc12 [Example 42, 5-{[(3-Cyclopropyl-6-iodo-2-phenylquinolin-4-yl)carbonyl]amino}bicyclo[3.2.2]nonane-1-carboxylic acid]	–
198	Cc1c(-c2ccccc2)nc2ccc(Br)cc2c1C(=O)NC12C3C4C1C1C2C3C41C(=O)O (stereo not shown) [Example 43, 4-{[(6-Bromo-3-methyl-2-phenylquinolin-4-yl)carbonyl]amino}cubane-1-carboxylic acid]	–
73	Cc1c(-c2ccccc2)nc2ccc(I)cc2c1C(=O)NC12C3C4C1C1C2C3C41C(=O)O (stereo not shown) [Example 44, 4-{[(6-Iodo-3-methyl-2-phenylquinolin-4-yl)carbonyl]amino}cubane-1-carboxylic acid]	–
161	O=C(NC12C3C4C1C1C2C3C41C(=O)O)c1c(Cl)c(-c2ccccc2)nc2ccc(Br)cc12 (stereo not shown) [Example 45, 4-{[(6-Bromo-3-chloro-2-phenylquinolin-4-yl)carbonyl]amino}cubane-1-carboxylic acid]	–
58	Cc1c(-c2cc(Br)cs2)nc2ccc(Br)cc2c1C(=O)NC12CCC(C(=O)O)(CC1)CC2 [Example 52, 4-({[6-Bromo-2-(4-bromo-2-thienyl)-3-methylquinolin-4-yl]carbonyl}amino)bicyclo[2.2.2]octane-1-carboxylic acid]	–
235	Cc1ccc(-c2nc3ccc(Br)cc3c(C(=O)NC34CCC(C(=O)O)(CC3)CC4)c2C)s1 [Example 53, 4-({[6-Bromo-3-methyl-2-(5-methyl-2-thienyl)quinolin-4-yl]carbonyl}amino)bicyclo[2.2.2]octane-1-carboxylic acid]	–
240	Cc1c(-c2ccc(Cl)s2)nc2ccc(Br)cc2c1C(=O)NC12CCC(C(=O)O)(CC1)CC2 [Example 54, 4-({[6-Bromo-2-(5-chloro-2-thienyl)-3-methylquinolin-4-yl]carbonyl}amino)bicyclo[2.2.2]octane-1-carboxylic acid]	–
383	Cc1c(-c2ccc(Br)s2)nc2ccc(Br)cc2c1C(=O)NC12CCC(C(=O)O)(CC1)CC2 [Example 55, 4-({[6-Bromo-2-(5-bromo-2-thienyl)-3-methylquinolin-4-yl]carbonyl}amino)bicyclo[2.2.2]octane-1-carboxylic acid]	–
148	C#Cc1ccc2nc(-c3ccccc3)c(C)c(C(=O)NC34CCC(C(=O)O)(CC3)CC4)c2c1 [Example 56, 4-{[(6-Ethynyl-3-methyl-2-phenylquinolin-4-yl)carbonyl]amino}bicyclo[2.2.2]octane-1-carboxylic acid]	–
637	Cc1c(-c2ccccc2)nc2ccc(Br)cc2c1C(=O)NC12CCC(C(=O)O)(CC1)C(=O)C2 [Example 57, 4-{[(6-Bromo-3-methyl-2-phenylquinolin-4-yl)carbonyl]amino}-2-oxobicyclo[2.2.2]octane-1-carboxylic acid]	–
668	Cc1c(-c2ccccc2)nc2ccc(Br)cc2c1C(=O)NC12CCC(C(=O)O)(CC1)C(F)(F)C2 [Example 58, 4-{[(6-Bromo-3-methyl-2-phenylquinolin-4-yl)carbonyl]amino}-2,2-difluorobicyclo[2.2.2]octane-1-carboxylic acid]	–
82	Cc1c(-c2ccccc2)nc2ccc(Br)cc2c1C(=O)NC12CCC(C(=O)O)(CC1=O)CC2=O [Example 63, 4-{[(6-Bromo-3-methyl-2-phenylquinolin-4-yl)carbonyl]amino}-3,5-dioxobicyclo [2.2.2]octane-1-carboxylic acid]	–
762	Cc1c(-c2ccccc2)nc2ccc(I)cc2c1C(=O)NC12CCC(C(=O)O)(CC1)OC2 [Example 64, 4-{[(6-Iodo-3-methyl-2-phenylquinolin-4-yl)carbonyl]amino}-2-oxabicyclo [2.2.2]octane-1-carboxylic acid]	–
824	Cc1c(-c2ccccc2)nc2ccc(Br)cc2c1C(=O)N[C@@H]1[C@@H]2CC[C@H]1C[C@H](C(=O)O)C2 [Example 65, (3-exo,8-anti)-8-{[(6-Bromo-3-methyl-2-phenylquinolin-4-yl)carbonyl]amino}bicyclo[3.2.1]octane-3-carboxylic acid]	–
762	N#Cc1c(-c2ccccc2)nc2ccc(Br)cc2c1C(=O)NC12CCC(C(=O)O)(CC1)CC2 [Example 66, 4-{[(6-Bromo-3-cyano-2-phenylquinolin-4-yl)carbonyl]amino}bicyclo[2.2.2]octane-1-carboxylic acid]	–
440	C=Cc1c(-c2ccccc2)nc2ccc(Br)cc2c1C(=O)NC12CCC(C(=O)O)(CC1)CC2 [Example 67, 4-{[(6-Bromo-2-phenyl-3-vinylquinolin-4-yl)carbonyl]amino}bicyclo[2.2.2]octane-1-carboxylic acid]	–
–	Bleomycin	half-life [1]: about 3 hours
–	Prostaglandin F2alpha [PGF2α]	t1/2 [2]: < 1 min
